Source: article PMC12409219, “Binding kinetics, bias, receptor internalization and effects on insulin secretion in vitro and in vivo of a novel GLP‐1R/GIPR dual agonist, HISHS‐2001” (Diabetes, Obesity & Metabolism, 2025)

What was measured:
in vivo = experiment: in vivo; design: species or system mouse; conditions: sc; for Tmax / half-life: male, CD-1, mouse; for stability in the circulation: mouse
Procedure: Ninety animals were procured from LAR. Animals were acclimatized for 1 day. On Day 0, each animal was weighed. […] Animals were injected subcutaneously at 1 mg/kg for the corresponding agonist (dose volume: 10 mL/kg) using 26½ gauge needles. At 1, 2, 4, 8, 12, 24, 48, 72, and 96 h, ~500 μL of blood was collected by retro‐orbital plexus puncture using capillary micro‐centrifuge tubes containing anticoagulant (15 μL 10% K2 EDTA). Plasma was separated from blood by centrifugation at ~3300 rpm for 10 min at 4°C. HISHS‐2001 concentrations were estimated using liquid chromatography with tandem mass spectrometry.

human GLP-1R [1] = molecular target: T1, human GLP-1R (Homo sapiens, UniProt P43220); experiment: cAMP assay in HEK293-SNAP-GLP-1R cells (HTRF); type: cell-based; conditions: 30-min stimulation, n = 4, compared to native GLP-1(7-36)NH2
Procedure: HEK293 cells stably expressing human GLP‐1R or human GIPR, each self‐labelling protein tag (SNAP)‐tagged at their N‐termini (Cisbio), were cultured in Dulbecco's Modified Eagle's Medium (DMEM) medium (Gibco), 10% fetal bovine serum (FBS) and 1% penicillin/streptomycin.
HEK293‐SNAP‐GLP‐1R, HEK293‐SNAP‐GIPR or GLP‐1R‐β‐arrestin 2 cells were seeded overnight in 12‐well plates. On the day of the assay, cells were resuspended and dispensed into white, 96‐well plates containing the indicated concentration of agonist prepared in serum‐free medium containing 0.1% bovine serum albumin (BSA). After a 30‐min stimulation, cAMP detection reagents (cAMP dynamic kit, Cisbio) were added, and the plate was read 60 min later using an HTRF‐compatible plate reader. Data were analysed using three‐parameter logistic fitting (GraphPad Prism 9.0) and normalised to the maximal fitted response of the reference ligand (GLP‐1 or semaglutide) for presentation purposes.

human GLP-1R [2] = molecular target: T1, human GLP-1R; experiment: GLP-1R binding kinetics, TR-FRET competitive kinetics with exendin(9-39)-FITC; conditions: calculated from K on and K off; HISHS-2001 versus tirzepatide
Procedure: HEK293‐SNAP‐GLP‐1R cells were seeded overnight in 12‐well plates. On the day of the assay, cells were labelled with 40 nM Lumi4‐Tb (Cisbio) in complete medium for 30 min. After washing, labelled cells were preincubated for 20 min in Hanks' Balanced Salt Solution (HBSS) supplemented with 0.1% BSA and a metabolic inhibitor cocktail (10 mM NaN3, 20 mM 2‐deoxyglucose) to inhibit GLP‐1R endocytosis that would otherwise influence binding assays. Ligand binding was then detected in real time using time‐resolved Förster resonance energy transfer (TR‐FRET) using a Flexstation 3 plate reader (Molecular Devices). […] Plate reader settings included 340 nm λexcitation, 520 nm (cut‐off 495 nm) and 620 nm (cut‐off 570 nm) λemission, 400 μs delay and 1500 μs integration time. Association and dissociation rate constants were calculated using the kinetics of competitive binding algorithm in GraphPad Prism 9.0.

T1 sequence (P43220 24-463): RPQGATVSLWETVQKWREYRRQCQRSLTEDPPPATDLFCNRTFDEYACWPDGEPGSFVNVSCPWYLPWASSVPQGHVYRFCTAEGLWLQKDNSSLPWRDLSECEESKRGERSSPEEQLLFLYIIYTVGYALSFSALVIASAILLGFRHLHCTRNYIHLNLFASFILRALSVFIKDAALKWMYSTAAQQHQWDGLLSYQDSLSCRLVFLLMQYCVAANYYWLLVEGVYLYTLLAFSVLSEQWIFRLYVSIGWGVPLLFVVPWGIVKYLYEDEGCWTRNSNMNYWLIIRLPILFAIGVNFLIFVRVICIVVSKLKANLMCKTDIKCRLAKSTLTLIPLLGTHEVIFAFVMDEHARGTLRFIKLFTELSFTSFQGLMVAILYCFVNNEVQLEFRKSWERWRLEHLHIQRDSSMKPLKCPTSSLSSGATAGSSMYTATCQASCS

Row | Compound | Tmax (in vivo) | half-life (in vivo) | stability in the circulation (in vivo) | cAMP potency (pEC50) at the GLP-1R (human GLP-1R [1]) | calculated Kd at GLP-1R (human GLP-1R [2])
1 | CC[C@H](C)[C@H](NC(=O)[C@H](CC(C)C)NC(=O)[C@H](Cc1c[nH]c2ccccc12)NC(=O)[C@H](CCC(N)=O)NC(=O)[C@@H](NC(=O)[C@H](Cc1ccccc1)NC(=O)[C@H](C)NC(=O)[C@H](CCCCNC(=O)COCCOCCNC(=O)COCCOCCNC(=O)CC[C@H](NC(=O)CCCCCCCCCCCCCCCCCCC(=O)O)C(=O)O)NC(=O)[C@H](CCC(N)=O)NC(=O)[C@H](C)NC(=O)[C@@H](NC(=O)[C@H](CCCCN)NC(=O)[C@H](CC(=O)O)NC(=O)[C@H](CC(C)C)NC(=O)C(C)(C)NC(=O)[C@@H](NC(=O)[C@H](CO)NC(=O)[C@H](Cc1ccc(O)cc1)NC(=O)[C@H](CC(=O)O)NC(=O)[C@H](CO)NC(=O)[C@@H](NC(=O)[C@H](Cc1ccccc1)NC(=O)[C@@H](NC(=O)CNC(=O)[C@H](CCC(=O)O)NC(=O)C(C)(C)NC(=O)[C@@H](N)Cc1ccc(O)cc1)[C@@H](C)O)[C@@H](C)O)[C@@H](C)CC)[C@@H](C)CC)C(C)C)C(=O)N[C@@H](C)C(=O)NCC(=O)NCC(=O)N1CCC[C@H]1C(=O)N[C@@H](CO)C(=O)N[C@@H](CO)C(=O)NCC(=O)N[C@@H](C)C(=O)N1CCC[C@H]1C(=O)N1CCC[C@H]1C(=O)N1CCC[C@H]1C(=O)N[C@@H](CO)C(N)=O [tirzepatide, reference compound] | 8 h | 8.78 h | similar | – | –
2 | CC[C@H](C)[C@H](NC(=O)[C@H](CC(C)C)NC(=O)[C@H](Cc1c[nH]c2ccccc12)NC(=O)[C@H](CCC(N)=O)NC(=O)[C@@H](NC(=O)[C@H](Cc1ccccc1)NC(=O)[C@H](C)NC(=O)[C@H](CCCCNC(=O)COCCOCCNC(=O)C(C)(C)NC(=O)CC[C@H](NC(=O)CCCCCCCCCCCCCCCCCCC(=O)O)C(=O)O)NC(=O)[C@H](CCC(N)=O)NC(=O)[C@H](C)NC(=O)[C@@H](NC(=O)[C@H](CCCCN)NC(=O)[C@H](CC(=O)O)NC(=O)[C@H](CC(C)C)NC(=O)C(C)(C)NC(=O)[C@@H](NC(=O)[C@H](CO)NC(=O)[C@H](Cc1ccc(O)cc1)NC(=O)[C@H](CC(=O)O)NC(=O)[C@H](CO)NC(=O)[C@@H](NC(=O)[C@H](Cc1ccccc1)NC(=O)[C@@H](NC(=O)CNC(=O)[C@H](CCC(=O)O)NC(=O)C(C)(C)NC(=O)[C@@H](N)Cc1ccc(O)cc1)[C@@H](C)O)[C@@H](C)O)[C@@H](C)CC)[C@@H](C)CC)C(C)C)C(=O)N[C@@H](C)C(=O)NCC(=O)NCC(=O)N1CCC[C@H]1C(=O)N[C@@H](CO)C(=O)N[C@@H](CO)C(=O)NCC(=O)N[C@@H](C)C(=O)N1CCC[C@H]1C(=O)N1CCC[C@H]1C(=O)N1CCC[C@H]1C(=O)N[C@@H](CO)C(N)=O [HISHS-2001] | 8 h | 10.1 h | similar | significantly reduced potency | also lower
